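96-well plates; 48 h exposure; 5 concentrations. Endpoints by linear interpolation between flanking doses. Not reached: highest tested concentration assigned. The concentration for 50% growth inhibition is given as GI50. TGI denotes the concentration required for complete inhibition of growth.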
What was measured:
Assay in all cases: NCI anticancer screen, dose series, 48 h
DMS 273 small cell lung = test system: DMS 273 small cell lung
LXFL 529 NSCLC = test system: LXFL 529 NSCLC
M19-MEL melanoma = test system: M19-MEL melanoma
XF 498 CNS = test system: XF 498 CNS
DU-145 prostate = test system: DU-145 prostate
MCF7 breast = test system: MCF7 breast
MDA-MB-435 = test system: MDA-MB-435
MDA-N = test system: MDA-N

Work on `CN(C)/C(=N/C(=O)Nc1ccccc1)SCc1ccccc1` yielded a TGI (DMS 273 small cell lung) of over 100 µM, a TGI (LXFL 529 NSCLC) of over 100 µM and a TGI (M19-MEL melanoma) of over 100 µM. The TGI (XF 498 CNS) was over 100 µM.
With `Cc1cc(C(=O)NCCN(C)C)c2nc3ccccc3nc2c1` the TGI (DMS 273 small cell lung) was over 100 µM, the TGI (LXFL 529 NSCLC) was over 46.3 µM and the TGI (M19-MEL melanoma) was 13.6 µM.
`CC(=O)Nc1[nH]c(=O)[nH]c(=O)c1N(C(C)=O)C(C)=O` showed a TGI (DMS 273 small cell lung) of over 100 µM, a TGI (LXFL 529 NSCLC) of over 100 µM and a TGI (M19-MEL melanoma) of over 100 µM. For the same molecule, the TGI (XF 498 CNS) was over 100 µM.
Molecule `COc1cc([N+](=O)[O-])c2ncccc2c1O` has a GI50 (DU-145 prostate) of 2.32 µM, a TGI (DU-145 prostate) of 5.73 µM and a GI50 (MCF7 breast) of 2.96 µM. It also gave a TGI (MCF7 breast) of over 100 µM, a GI50 (MDA-MB-435) of 3.53 µM and a TGI (MDA-MB-435) of 14.8 µM.
In the case of `CCCC/C(C)=N/NC(N)=S`, the TGI (LXFL 529 NSCLC) is reported as over 100 µM and the TGI (M19-MEL melanoma) is reported as over 100 µM.
`CN1C=CN(Cc2ccc(-c3ccccn3)nc2)[CH-]1.CN1C=CN(Cc2ccc(-c3ccccn3)nc2)[CH-]1.[Au+3]` was tested, and the GI50 (DU-145 prostate) was 4.16 µM, the TGI (DU-145 prostate) was 36.8 µM and the GI50 (MCF7 breast) was 0.314 µM. The TGI (MCF7 breast) was 12.2 µM, the GI50 (MDA-MB-435) was 2.97 µM and the TGI (MDA-MB-435) was 20.9 µM.
`COC(=N)/C(=C1\OC(N)=C(c2ccc(Cl)cc2)C1=O)c1ccc(Cl)cc1` gave a TGI (DMS 273 small cell lung) of over 100 µM, a TGI (LXFL 529 NSCLC) of over 100 µM and a TGI (M19-MEL melanoma) of over 100 µM. For the same molecule, the TGI (XF 498 CNS) was over 100 µM.
`CC(=O)OCC1OC(O[C@@H]2C[C@H]3C(C)(C)[C@H](OC(C)=O)CC[C@]3(C)[C@H]3CC[C@@H]4[C@]5(CC[C@@]4(C)[C@@]32C)O[C@@H]([C@H](O)C(C)(C)O)C[C@@H]5C)C(O)C(O)C1O` (stereo not given in full) showed a GI50 (DU-145 prostate) of 10.6 µM, a TGI (DU-145 prostate) of 22.8 µM and a GI50 (MCF7 breast) of 1.06 µM. The TGI (MCF7 breast) was 6.03 µM, the GI50 (MDA-MB-435) was 8.36 µM and the TGI (MDA-MB-435) was 22.4 µM. It also gave a GI50 (MDA-N) of 7.08 µM and a TGI (MDA-N) of 20.1 µM.
Work on `COc1ccc2c3c([nH]c2c1)[C@H]1C[C@H]2[C@H](C[C@@H](O)[C@H](OC)[C@H]2C(=O)O)CN1CC3` yielded a TGI (DU-145 prostate) of over 100 µM, a TGI (MCF7 breast) of over 100 µM and a TGI (MDA-MB-435) of over 100 µM. It also gave a TGI (MDA-N) of over 100 µM.
`CC12CC(=O)NN=C1c1ccccc1C2` (stereo not given) was tested, and the TGI (DMS 273 small cell lung) was over 100 µM, the TGI (M19-MEL melanoma) was over 100 µM and the TGI (XF 498 CNS) was over 100 µM.
In the case of `COc1cc(SC)ccc1C(=O)N1CCCC(C)C1` (stereo not given), the GI50 (DU-145 prostate) is reported as over 100 µM, the TGI (DU-145 prostate) is reported as over 100 µM and the GI50 (MCF7 breast) is reported as 79 µM. For the same molecule, the TGI (MCF7 breast) was over 100 µM, the GI50 (MDA-MB-435) was over 100 µM and the TGI (MDA-MB-435) was over 100 µM.
Work on `Cc1cc(C#Cc2ccccc2)ccc1-n1c(/C=C/c2ccc(O)cc2)nc2ccccc2c1=O` yielded a GI50 (DU-145 prostate) of 4.87 µM, a TGI (DU-145 prostate) of over 100 µM and a GI50 (MCF7 breast) of 2.72 µM. It also gave a TGI (MCF7 breast) of 11 µM, a GI50 (MDA-MB-435) of 2.82 µM and a TGI (MDA-MB-435) of 22.8 µM.
For `CC1=CC(=O)c2[nH]c3ccccc3c2C1=O`, the GI50 (DMS 273 small cell lung) was 4.26 µM, the TGI (DMS 273 small cell lung) was 7.83 µM and the GI50 (LXFL 529 NSCLC) was 4.22 µM. For the same molecule, the TGI (LXFL 529 NSCLC) was 7.63 µM, the GI50 (XF 498 CNS) was 4.38 µM and the TGI (XF 498 CNS) was 7.99 µM.
`C=C1C(=O)O[C@H]2[C@H](OC(C)=O)[C@@H](C)CCC/C(C)=C/CC[C@]3(CO3)[C@H](O)C[C@@H]12` showed a GI50 (DU-145 prostate) of 2.56 µM, a TGI (DU-145 prostate) of 10.2 µM and a GI50 (MCF7 breast) of 3.24 µM. For the same molecule, the TGI (MCF7 breast) was 12 µM, the GI50 (MDA-MB-435) was 3.01 µM and the TGI (MDA-MB-435) was 7.99 µM.
`COc1ccccc1OCC(O)CO` (stereo not given) gave a GI50 (DU-145 prostate) of over 100 µM, a TGI (DU-145 prostate) of over 100 µM and a GI50 (MCF7 breast) of over 100 µM. It also gave a TGI (MCF7 breast) of over 100 µM, a GI50 (MDA-MB-435) of over 100 µM and a TGI (MDA-MB-435) of over 100 µM.
Molecule `C[C@@H]1CC[C@H]2C(CN3CCN(CC4=C(C(F)(F)F)O[C@@H]5O[C@@]6(C)CC[C@H]7[C@H](C)CC[C@@H]4[C@@]57OO6)CC3)=C(C(F)(F)F)O[C@@H]3O[C@@]4(C)CC[C@@H]1[C@]32OO4` has a GI50 (DU-145 prostate) of 16.9 µM, a TGI (DU-145 prostate) of over 100 µM and a GI50 (MCF7 breast) of 3.13 µM. For the same molecule, the TGI (MCF7 breast) was over 100 µM, the GI50 (MDA-MB-435) was 1.09 µM and the TGI (MDA-MB-435) was over 100 µM.
